Columns and labels:
Assay type in all cases: biochemical
[1] = biological target: T1, Lck (Homo sapiens, UniProt P06239); experiment: Kinase inhibition assay (33P transfer), Lck; conditions: Table 3; read-out: Lck-1
T1 construct: Kinases are expressed as either kinase domains or full length constructs; made in house
How it was run: (§1)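 Enzyme activity is taken as the amount of 33PO4 moved from ATP onto poly(Glu, Tyr) 4:1 or poly(Arg, Ser) 3:1 fixed to the plate surface. Unbound label is removed with 0.5% phosphoric acid before scintillation counting.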

[2] = biological target: T2, Zap-70 (Homo sapiens, UniProt P43403); experiment: Kinase inhibition assay (33P transfer), Zap-70; conditions: Table 3; read-out: Zap-1
T2 construct: Kinases are expressed as either kinase domains or full length constructs; made in house
T2 sequence (P43403 1-619): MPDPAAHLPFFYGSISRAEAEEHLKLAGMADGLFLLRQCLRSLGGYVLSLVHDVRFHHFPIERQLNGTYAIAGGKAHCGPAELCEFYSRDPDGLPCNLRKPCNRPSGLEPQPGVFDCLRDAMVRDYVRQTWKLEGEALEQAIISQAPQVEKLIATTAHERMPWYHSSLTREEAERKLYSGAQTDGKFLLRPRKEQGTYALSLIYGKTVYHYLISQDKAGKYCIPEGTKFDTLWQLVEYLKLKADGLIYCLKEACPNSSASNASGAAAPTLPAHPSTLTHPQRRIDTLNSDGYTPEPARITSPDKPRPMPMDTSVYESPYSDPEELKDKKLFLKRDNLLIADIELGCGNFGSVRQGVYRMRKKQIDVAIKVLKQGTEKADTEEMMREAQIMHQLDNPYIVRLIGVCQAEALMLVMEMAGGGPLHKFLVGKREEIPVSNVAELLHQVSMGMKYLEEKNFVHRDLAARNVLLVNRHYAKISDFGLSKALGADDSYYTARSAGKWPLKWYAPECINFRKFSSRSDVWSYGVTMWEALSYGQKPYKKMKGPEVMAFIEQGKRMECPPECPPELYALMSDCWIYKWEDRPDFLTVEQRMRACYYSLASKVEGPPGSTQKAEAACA
How it was run: as §1

[3] = biological target: T3, Itk (Homo sapiens, UniProt Q08881); experiment: Kinase inhibition assay (33P transfer), Itk; conditions: Table 3; read-out: Itk-1
T3 construct: Kinases are expressed as either kinase domains or full length constructs; made in house
T3 sequence (Q08881 1-620): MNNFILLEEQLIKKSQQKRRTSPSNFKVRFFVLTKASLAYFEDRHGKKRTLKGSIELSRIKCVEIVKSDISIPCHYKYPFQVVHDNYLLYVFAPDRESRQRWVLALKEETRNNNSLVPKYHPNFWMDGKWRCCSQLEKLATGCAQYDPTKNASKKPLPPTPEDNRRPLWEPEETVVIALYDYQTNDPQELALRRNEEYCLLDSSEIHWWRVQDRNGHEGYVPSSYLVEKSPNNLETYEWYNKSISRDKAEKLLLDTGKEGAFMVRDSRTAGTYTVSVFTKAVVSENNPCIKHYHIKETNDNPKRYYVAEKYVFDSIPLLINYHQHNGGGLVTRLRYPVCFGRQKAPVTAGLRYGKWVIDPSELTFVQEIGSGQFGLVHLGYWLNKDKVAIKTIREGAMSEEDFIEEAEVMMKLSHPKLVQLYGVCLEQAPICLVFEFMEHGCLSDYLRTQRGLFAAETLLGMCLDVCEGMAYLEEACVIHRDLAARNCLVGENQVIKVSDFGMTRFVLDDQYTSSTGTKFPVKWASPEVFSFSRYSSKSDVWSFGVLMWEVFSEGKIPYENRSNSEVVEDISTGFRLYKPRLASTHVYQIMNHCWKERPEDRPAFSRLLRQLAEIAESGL
How it was run: (§2)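 Recombinant kinase domains or full-length GST- or His-tagged constructs, from E. coli or baculovirus/High Five cells, sometimes with regulatory polypeptides. Transfer of 33P from ATP to plate-bound poly(Glu,Tyr) 4:1 or poly(Arg,Ser) 3:1 counted by liquid scintillation after phosphoric acid wash; IC50 is the concentration halving incorporation.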

[4] = biological target: T4, EGFR (Homo sapiens, UniProt P00533); experiment: Kinase inhibition assay (33P transfer), EGFR; conditions: Table 2, kinase inhibition class; read-out: EGFR-1
T4 construct: Kinases are expressed as either kinase domains or full length constructs; made in house
How it was run: as §2

[5] = biological target: T5, Kdr (Homo sapiens, UniProt P35968); experiment: Kinase inhibition assay (33P transfer), Kdr; conditions: Table 3; read-out: KDR-1
T5 construct: Kinases are expressed as either kinase domains or full length constructs; made in house
How it was run: as §1

[6] = biological target: T6, c-Met (Homo sapiens, UniProt P08581); experiment: Kinase inhibition assay (33P transfer), c-Met; conditions: Table 2, kinase inhibition class; read-out: Met-1
T6 construct: Kinases are expressed as either kinase domains or full length constructs; made in house
How it was run: as §2

[7] = biological target: T7, AKT (Homo sapiens, UniProt Q9Y243); experiment: Kinase inhibition assay (33P transfer), AKT; conditions: Table 2, kinase inhibition class; read-out: AKT3-1
T7 construct: Kinases are expressed as either kinase domains or full length constructs; made in house
How it was run: as §1

[8] = biological target: T8, IGFR-1 (Homo sapiens, UniProt P08069); experiment: Kinase inhibition assay (33P transfer), IGFR-1; conditions: Table 2, kinase inhibition class
T8 construct: Kinases are expressed as either kinase domains or full length constructs; made in house
T8 sequence (P08069 31-1367): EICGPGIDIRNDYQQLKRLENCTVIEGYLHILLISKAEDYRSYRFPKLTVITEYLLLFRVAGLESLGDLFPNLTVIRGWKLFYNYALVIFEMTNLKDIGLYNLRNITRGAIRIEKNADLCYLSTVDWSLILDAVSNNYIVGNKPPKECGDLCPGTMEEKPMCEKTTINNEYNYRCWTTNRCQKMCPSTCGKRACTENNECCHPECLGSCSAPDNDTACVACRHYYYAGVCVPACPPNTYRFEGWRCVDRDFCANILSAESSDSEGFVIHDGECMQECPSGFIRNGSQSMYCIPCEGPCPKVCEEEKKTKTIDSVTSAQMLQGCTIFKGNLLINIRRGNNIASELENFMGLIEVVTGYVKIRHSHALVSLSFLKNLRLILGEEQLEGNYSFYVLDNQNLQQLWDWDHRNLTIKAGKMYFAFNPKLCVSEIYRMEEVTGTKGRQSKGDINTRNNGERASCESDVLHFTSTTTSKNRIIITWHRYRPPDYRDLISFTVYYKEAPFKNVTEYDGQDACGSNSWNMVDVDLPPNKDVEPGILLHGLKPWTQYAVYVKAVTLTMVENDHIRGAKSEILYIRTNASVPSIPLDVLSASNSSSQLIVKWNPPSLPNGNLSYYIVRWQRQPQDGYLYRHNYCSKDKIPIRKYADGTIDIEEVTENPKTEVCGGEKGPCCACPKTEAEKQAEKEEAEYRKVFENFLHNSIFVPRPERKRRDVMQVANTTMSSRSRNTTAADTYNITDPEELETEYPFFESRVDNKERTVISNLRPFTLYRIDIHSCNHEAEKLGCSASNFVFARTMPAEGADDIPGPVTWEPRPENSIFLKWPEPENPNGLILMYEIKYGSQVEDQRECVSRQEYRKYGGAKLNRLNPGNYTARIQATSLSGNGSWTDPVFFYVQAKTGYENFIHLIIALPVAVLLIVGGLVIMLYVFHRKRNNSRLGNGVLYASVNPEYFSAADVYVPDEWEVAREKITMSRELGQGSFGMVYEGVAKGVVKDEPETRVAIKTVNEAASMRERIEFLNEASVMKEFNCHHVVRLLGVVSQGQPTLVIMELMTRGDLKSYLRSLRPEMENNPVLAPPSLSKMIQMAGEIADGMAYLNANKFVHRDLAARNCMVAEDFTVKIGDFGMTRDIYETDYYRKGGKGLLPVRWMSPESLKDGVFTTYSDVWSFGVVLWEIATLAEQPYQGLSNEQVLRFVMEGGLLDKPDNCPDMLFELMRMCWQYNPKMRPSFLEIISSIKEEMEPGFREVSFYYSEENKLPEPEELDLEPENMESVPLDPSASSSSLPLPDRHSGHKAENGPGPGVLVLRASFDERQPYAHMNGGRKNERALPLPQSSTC

T1 sequence (P06239 whole entry, species assumed, the tested form may be a part): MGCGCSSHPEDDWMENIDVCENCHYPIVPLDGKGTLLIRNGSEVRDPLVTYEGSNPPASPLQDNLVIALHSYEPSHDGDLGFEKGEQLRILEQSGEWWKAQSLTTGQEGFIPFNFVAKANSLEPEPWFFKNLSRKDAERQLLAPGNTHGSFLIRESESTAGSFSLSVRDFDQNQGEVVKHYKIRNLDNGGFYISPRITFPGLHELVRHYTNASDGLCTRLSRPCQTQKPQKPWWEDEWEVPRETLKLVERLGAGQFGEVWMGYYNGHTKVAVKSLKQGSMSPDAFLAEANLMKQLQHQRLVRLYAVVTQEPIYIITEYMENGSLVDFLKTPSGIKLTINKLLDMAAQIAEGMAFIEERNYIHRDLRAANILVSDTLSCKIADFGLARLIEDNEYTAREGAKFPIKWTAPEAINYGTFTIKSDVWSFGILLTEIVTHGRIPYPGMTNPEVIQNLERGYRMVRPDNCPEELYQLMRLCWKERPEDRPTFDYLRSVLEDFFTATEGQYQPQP
T5 sequence (P35968 20-1356, species assumed): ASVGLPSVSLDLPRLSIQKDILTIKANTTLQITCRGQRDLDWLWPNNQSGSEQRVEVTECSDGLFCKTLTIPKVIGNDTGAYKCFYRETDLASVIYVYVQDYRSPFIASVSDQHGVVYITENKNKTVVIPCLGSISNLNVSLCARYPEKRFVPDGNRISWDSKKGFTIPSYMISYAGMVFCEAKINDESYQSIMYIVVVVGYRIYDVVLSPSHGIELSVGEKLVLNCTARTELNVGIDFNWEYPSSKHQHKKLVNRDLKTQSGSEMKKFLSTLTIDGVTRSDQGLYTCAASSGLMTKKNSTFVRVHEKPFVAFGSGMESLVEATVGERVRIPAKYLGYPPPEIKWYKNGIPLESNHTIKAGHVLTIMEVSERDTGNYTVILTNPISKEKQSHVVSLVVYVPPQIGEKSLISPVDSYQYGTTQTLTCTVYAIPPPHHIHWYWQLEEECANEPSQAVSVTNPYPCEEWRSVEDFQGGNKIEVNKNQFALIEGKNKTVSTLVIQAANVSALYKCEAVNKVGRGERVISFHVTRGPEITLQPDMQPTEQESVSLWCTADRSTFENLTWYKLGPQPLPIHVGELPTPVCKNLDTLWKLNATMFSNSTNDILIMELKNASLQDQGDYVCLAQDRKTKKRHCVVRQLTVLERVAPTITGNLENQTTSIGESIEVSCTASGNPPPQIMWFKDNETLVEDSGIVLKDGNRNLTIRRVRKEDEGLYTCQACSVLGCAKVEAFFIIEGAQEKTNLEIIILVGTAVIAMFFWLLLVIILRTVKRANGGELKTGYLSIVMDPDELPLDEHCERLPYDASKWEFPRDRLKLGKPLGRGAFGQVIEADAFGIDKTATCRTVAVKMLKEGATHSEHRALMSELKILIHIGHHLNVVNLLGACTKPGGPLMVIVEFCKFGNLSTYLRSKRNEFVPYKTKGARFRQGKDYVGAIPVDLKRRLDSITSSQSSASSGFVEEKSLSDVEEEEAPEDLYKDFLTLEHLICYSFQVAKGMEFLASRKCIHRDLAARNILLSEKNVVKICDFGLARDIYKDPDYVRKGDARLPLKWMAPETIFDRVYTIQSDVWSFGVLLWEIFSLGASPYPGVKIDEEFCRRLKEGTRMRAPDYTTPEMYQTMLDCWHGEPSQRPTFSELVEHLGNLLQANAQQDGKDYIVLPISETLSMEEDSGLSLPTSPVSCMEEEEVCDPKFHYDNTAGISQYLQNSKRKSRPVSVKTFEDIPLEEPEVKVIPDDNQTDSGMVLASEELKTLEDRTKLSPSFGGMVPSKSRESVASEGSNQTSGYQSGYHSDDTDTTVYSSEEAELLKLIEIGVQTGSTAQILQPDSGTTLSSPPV
T4 sequence (P00533 25-1210, species assumed): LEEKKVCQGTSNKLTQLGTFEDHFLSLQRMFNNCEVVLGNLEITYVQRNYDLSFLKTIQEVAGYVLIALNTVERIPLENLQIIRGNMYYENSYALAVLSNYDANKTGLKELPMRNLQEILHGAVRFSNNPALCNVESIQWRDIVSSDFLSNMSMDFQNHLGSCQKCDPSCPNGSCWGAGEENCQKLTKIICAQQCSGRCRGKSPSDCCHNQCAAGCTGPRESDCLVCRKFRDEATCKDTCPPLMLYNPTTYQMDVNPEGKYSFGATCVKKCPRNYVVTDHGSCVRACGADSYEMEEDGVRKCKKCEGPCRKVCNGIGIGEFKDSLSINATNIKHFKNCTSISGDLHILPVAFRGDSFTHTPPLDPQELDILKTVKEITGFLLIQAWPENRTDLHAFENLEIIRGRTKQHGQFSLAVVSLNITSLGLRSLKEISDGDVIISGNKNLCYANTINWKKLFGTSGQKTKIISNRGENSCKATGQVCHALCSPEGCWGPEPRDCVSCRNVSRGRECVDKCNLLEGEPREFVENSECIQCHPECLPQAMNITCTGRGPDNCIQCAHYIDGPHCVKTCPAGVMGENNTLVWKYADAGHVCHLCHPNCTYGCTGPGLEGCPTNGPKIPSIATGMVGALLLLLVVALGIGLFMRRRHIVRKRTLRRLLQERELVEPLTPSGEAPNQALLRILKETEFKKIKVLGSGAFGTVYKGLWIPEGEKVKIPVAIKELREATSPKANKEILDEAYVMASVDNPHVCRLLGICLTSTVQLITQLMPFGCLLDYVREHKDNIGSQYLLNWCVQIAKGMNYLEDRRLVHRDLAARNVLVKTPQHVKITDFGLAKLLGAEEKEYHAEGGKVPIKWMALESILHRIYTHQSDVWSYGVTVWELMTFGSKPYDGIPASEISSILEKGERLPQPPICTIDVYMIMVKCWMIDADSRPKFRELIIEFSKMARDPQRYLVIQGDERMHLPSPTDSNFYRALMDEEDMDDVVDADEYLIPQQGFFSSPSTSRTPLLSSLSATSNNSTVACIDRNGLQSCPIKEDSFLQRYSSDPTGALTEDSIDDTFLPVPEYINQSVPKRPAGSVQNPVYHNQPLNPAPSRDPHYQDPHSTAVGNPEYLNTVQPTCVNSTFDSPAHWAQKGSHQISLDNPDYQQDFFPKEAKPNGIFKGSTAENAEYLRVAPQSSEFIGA
T7 sequence (Q9Y243 whole entry, the tested form may be a part): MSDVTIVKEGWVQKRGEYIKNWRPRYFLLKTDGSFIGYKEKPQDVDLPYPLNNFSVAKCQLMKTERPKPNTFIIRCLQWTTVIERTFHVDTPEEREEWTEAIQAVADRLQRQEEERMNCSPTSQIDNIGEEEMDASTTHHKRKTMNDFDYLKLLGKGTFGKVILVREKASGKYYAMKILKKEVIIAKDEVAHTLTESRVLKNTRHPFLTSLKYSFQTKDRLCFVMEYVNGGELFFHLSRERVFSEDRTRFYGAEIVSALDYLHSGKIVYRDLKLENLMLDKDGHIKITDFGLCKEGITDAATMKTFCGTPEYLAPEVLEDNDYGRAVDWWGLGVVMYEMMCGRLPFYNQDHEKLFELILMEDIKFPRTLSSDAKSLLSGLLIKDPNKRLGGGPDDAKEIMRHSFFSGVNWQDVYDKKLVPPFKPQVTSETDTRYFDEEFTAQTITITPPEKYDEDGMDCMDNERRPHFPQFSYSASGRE

| IC50 [1] | IC50 [2] | IC50 [3] | IC50 [4] | IC50 [5] | IC50 [6] | IC50 [7] | IC50 [8] | Compound |
| --- | --- | --- | --- | --- | --- | --- | --- | --- |
| > 12.5 µM | > 12.5 µM | > 12.5 µM | > 12.5 µM | > 12.5 µM | > 12.5 µM | > 12.5 µM | > 12.5 µM | c1ccc(COc2cccc(Nc3ncnc(-c4cccs4)n3)c2)cc1 [Compound 361] |
| > 10.6 µM | > 10.6 µM | > 10.6 µM | > 10.6 µM | 5.65 to 8.25 µM | > 10.6 µM | > 10.6 µM | > 10.6 µM | COc1cc(Nc2ncnc(N3CCc4ccc([N+](=O)[O-])cc43)n2)cc(OC)c1OC [Compound 191] |
| > 15.6 µM | > 15.6 µM | > 15.6 µM | > 15.6 µM | > 15.6 µM | > 15.6 µM | > 15.6 µM | > 15.6 µM | Clc1cccc(Nc2ncnc(-c3cccs3)n2)c1 [Compound 360] |
| > 10.6 µM | > 10.6 µM | > 10.6 µM | > 10.6 µM | 0.942 to 5.65 µM | 5.65 to 8.25 µM | > 10.6 µM | > 10.6 µM | COc1cc(Nc2ncnc(N3CCN(c4ncccn4)CC3)n2)cc(OC)c1OC [Compound 214] |
| > 15.2 µM | > 15.2 µM | > 15.2 µM | > 15.2 µM | 1.35 to 8.09 µM | > 15.2 µM | > 15.2 µM | > 15.2 µM | COc1cc(Nc2ncnc(Cl)n2)cc(OC)c1OC [Compound 924, 2-chloro-4-(3′,4′,5′-trimethoxyanilino)-1,3,5-triazine] |
| > 15.4 µM | > 15.4 µM | > 15.4 µM | > 15.4 µM | > 15.4 µM | > 15.4 µM | > 15.4 µM | > 15.4 µM | NC(=O)c1ccc(Nc2ncnc(-c3ccccc3)n2)cc1 [Compound 1028] |
| > 13.7 µM | > 13.7 µM | > 13.7 µM | > 13.7 µM | > 13.7 µM | > 13.7 µM | > 13.7 µM | > 13.7 µM | COc1cc(C)c(Nc2ncnc(-c3cccs3)n2)cc1OC [Compound 359] |
| > 12.2 µM | > 12.2 µM | > 12.2 µM | > 12.2 µM | > 12.2 µM | > 12.2 µM | > 12.2 µM | > 12.2 µM | FC(F)C(F)(F)Oc1cccc(Nc2ncnc(-c3cccs3)n2)c1 [Compound 350] |
| > 13.5 µM | > 13.5 µM | > 13.5 µM | > 13.5 µM | > 13.5 µM | > 13.5 µM | > 13.5 µM | > 13.5 µM | CCOC(=O)Cc1ccc(Nc2ncnc(-c3ccccc3)n2)cc1 [Compound 164] |
| > 17.6 µM | > 17.6 µM | > 17.6 µM | > 17.6 µM | > 17.6 µM | > 17.6 µM | > 17.6 µM | > 17.6 µM | c1csc(-c2ncnc(Nc3ccncc3)n2)c1 [Compound 363] |
| > 12 µM | > 12 µM | > 12 µM | > 12 µM | > 12 µM | > 12 µM | > 12 µM | > 12 µM | COc1cc(Nc2ncnc(-c3ccnc(Cl)c3)n2)cc(OC)c1OC [Compound 331] |

— US7074789B2, “Kinase inhibitors” (Amgen Inc., priority 1999, dated 2006)
